Results: patent US7098169B2, “Herbicide-safener combination based on isoxazoline carboxylate safeners” (Bayer CropScience GmbH, priority 2001, dated 2006)

Tests used:
Format in all cases: in vivo
ZEAMA = Zea mays (maize) = test: Post-emergence treatment, safening by (Ib), visual injury score in maize (Table 1)
Experimental: 3.2 Effect of the Herbicide and Effect of the Safener when Applied Pre-Emergence Seeds or rhizome pieces of mono- and dicotyledenous harmful plants and of crop plants are placed in sandy loam soil in plastic pots, covered with soil and cultivated in a greenhouse under good growth conditions. Alternatively, harmful plants encountered in paddy rice cultivation are cultivated in pots where the water level is up to 2 cm above the soil surface. Three weeks after sowing, the test plants are treated at the three-leaf stage. […] In a series of trials the ability of herbicides to be […] by safener (Ib) was evaluated.

[1] = tested on: TRZAS, Triticum aestivum (wheat); test: Pre-emergence application of herbicide-safener combination, visual injury score in wheat (Table 2); conditions: application rate 300 g a.i./ha
Experimental: (§1) The damage to the plants is assessed visually on a scale of 0–100% in comparison with control plants: • 0%=no noticeable effect in comparison with the untreated plant • 100%=the treated plant dies off. 3.2 Effect of the Herbicide and Effect of the Safener when Applied Pre-Emergence
(§2) Seeds or rhizome pieces of mono- and dicotyledonous harmful plants and of crop plants are placed in sandy loam soil in plastic pots of a diameter of 9 cm and covered with soil. Alternatively, harmful plants encountered in paddy rice cultivation are cultivated in water-saturated soil, where the amount of water poured into the pots is such that the water level is at the soil surface, or some millimeters above the soil surface. The herbicide/safener active compound combinations according to the invention, formulated in the form of emulsion concentrates, and, in parallel tests, the correspondingly formulated individual active compounds are then applied as emulsions to the surface of the soil cover in various dosages using an amount of water of 300 l/ha (converted), or, in the case of rice, are poured into the irrigation water. After the treatment, the pots are placed in a greenhouse and kept under good growth conditions for the weeds. […]

[2] = tested on: HORVS = Hordeum vulgare (barley); test: Pre-emergence application of herbicide-safener combination, visual injury score in barley (Table 3); conditions: application rate 300 g a.i./ha (herbicide alone)
Experimental: as §1, §2

O=C(O)COc1nc(Cl)c(Cl)cc1Cl [(B2-3), 3,5,6-trichloro-2-pyridyloxyacetic acid]
% injury to ZEAMA (ZEAMA = Zea mays (maize); application rate 420 g a.i./ha): 22%

CCc1cccc(C)c1N(C(=O)CCl)[C@@H](C)COC [(B5-1)]
% injury to TRZAS [1]: 70%
% injury to HORVS [2]: 15%

CCOC(=O)C(Cl)Cc1cc(-n2nc(C)n(C(F)F)c2=O)c(F)cc1Cl (racemic) [(B4-1), ethyl (RS)-2-chloro-3-[2-chloro-5-(4-difluoromethyl-4,5-dihydro-3-methyl-5-oxo-1H-1,2,4-triazol-1-yl)-4-fluorophenyl]propionate]
% injury to ZEAMA (ZEAMA = Zea mays (maize); application rate 36 g a.i./ha): 11%

CSc1nnc(C(C)(C)C)c(=O)n1N [(B3-1), 4-amino-6-tert-butyl-4,5-dihydro3-methylthio-1,2,4-triazin-5-one]
% injury to ZEAMA (ZEAMA = Zea mays (maize); application rate 560 g a.i./ha): 23%

CCOc1nc(F)cc2nc(S(=O)(=O)Nc3c(Cl)cccc3C(=O)OC)nn12 [(B1-2), methyl 3-chloro-(5-ethoxy-7-fluoro[1,2,4]triazole-[1,5-c]pyrimidin-2-ylsulfonamido)-benzoate]
% injury to ZEAMA (ZEAMA = Zea mays (maize); application rate 30 g a.i./ha): 32%

Nc1c(Cl)c(F)nc(OCC(=O)O)c1Cl [(B2-4), 4-amino-3,5-dichloro-6-fluoro-2-pyridyloxyacetic acid]
% injury to ZEAMA (ZEAMA = Zea mays (maize); application rate 160 g a.i./ha): 9%

COc1ncc(F)c2nc(S(=O)(=O)Nc3c(F)cccc3F)nn12 [(B1-1), N-(2,6difluorophenyl)-8-fluoro-5-methoxy-1,2,4-triazolo[1,5-c]pyrimidin-2-sulfonamide]
% injury to ZEAMA (ZEAMA = Zea mays (maize); application rate 10 g a.i./ha): 18%
